Test results taken from publication PMC8878317, “Chemogenomics identifies acetyl-coenzyme A synthetase as a target for malaria treatment and prevention” (Cell Chemical Biology, 2022).

Test system: P. falciparum 3D7 parasites
Test: Metabolomic profiling of compound-treated parasites (LC/MS);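 as to Metabolite data: 3-Phosphoglycerate: Log2 fold change in abundance versus untreated parasite controls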;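 as to Metabolite data: Myo-Inositol: Log2 fold change in abundance versus untreated parasite controls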;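 as to Metabolite data: N-Carbamoyl-L-Aspartate: Log2 fold change in abundance versus untreated parasite controls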;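 as to Metabolite data: Nicotinate: Log2 fold change in abundance versus untreated parasite controls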
Assay type: cell-based
Parameters: Metabolite data: dTMP / Metabolite data: GMP / Metabolite data: S-Adenosyl-L-Homocysteine / Metabolite data: 1_3-Bisphosphoglyceric acid: scale not given here
How it was run: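 Magnetically purified trophozoites (1×10^8 parasites/mL) recovered 1 h in RPMI 1640, incubated a further 2.5 h, quenched in 90% methanol with labeled aspartate. Extracts analysed by reverse-phase C18 LC with negative-mode Orbitrap MS; peak areas normalized to internal standards, blank-subtracted and averaged by condition.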

SMILES: N#Cc1cc(NC(=O)[C@H]2c3ccccc3C(=O)N(CC(F)(F)F)[C@@H]2c2cccnc2)ccc1F [SJ733]
- Metabolite data: 1_3-Bisphosphoglyceric acid: 0
- Metabolite data: 2_3-Diphosphoglyceric acid: -1.405
- Metabolite data: 3-Phosphoglycerate: 0.1564
- Metabolite data: 4-Aminobutyrate: -0.6232
- Metabolite data: 4-Phosphopantothenate: -0.06384
- Metabolite data: 4-phosphopantetheine: 0
- Metabolite data: 5-aminopentanoic acid: 0
- Metabolite data: 5-phosphoribosyl-1-pyrophosphate: 0
- Metabolite data: 6-Phospho-D-Gluconate: -0.1307
- Metabolite data: ADP-D-Glucose: 0.2839
- Metabolite data: Acetyl-CoA: -0.6106
- Metabolite data: Acetyllysine: -2.328
- Metabolite data: Aconitate: 1.12
- Metabolite data: CDP: 0.04523
- Metabolite data: CDP-Ethanolamine: -0.09201
- Metabolite data: CDP-choline: 0
- Metabolite data: CMP: 1.401
- Metabolite data: CTP: -0.9536
- Metabolite data: Citrate/Isocitrate: 0.1284
- Metabolite data: Cyclic-AMP: -1.252
- Metabolite data: Dihydroorotate: -2.603
- Metabolite data: FAD: -1.458
- Metabolite data: FMN: -1.104
- Metabolite data: Fructose-1,6-Bisphosphate: -0.7765
- Metabolite data: Fumarate: 0.221
- Metabolite data: GDP: -2.218
- Metabolite data: GMP: -2.3136
- Metabolite data: GTP: -1.102
- Metabolite data: Glucose-1/6-Phosphate: -0.8546
- Metabolite data: Glutathione Disulfide: -0.003594
- Metabolite data: Hexose: 0
- Metabolite data: Hydroxyisocaproic acid: 0
- Metabolite data: Indole: 0.01538
- Metabolite data: Ketoleucine: 0
- Metabolite data: L-arginino-succinate: 0
- Metabolite data: Lactate: -1.557
- Metabolite data: Malate: 0.2276
- Metabolite data: Myo-Inositol: -4.078
- Metabolite data: N-Acetyl-Glutamate: -0.1913
- Metabolite data: N-Acetyl-L-Alanine: -1.649
- Metabolite data: N-Acetyl-L-Ornithine: -1.387
- Metabolite data: N-Carbamoyl-L-Aspartate: -4.081
- Metabolite data: NAD+: -0.3968
- Metabolite data: NADH: 0.5171
- Metabolite data: NADP+: -0.1788
- Metabolite data: NADPH: 3.012
- Metabolite data: Nicotinate: 0.6001
- Metabolite data: Octulose 8/1-Phosphate: -0.3837
- Metabolite data: Orotate: 0.7127
- Metabolite data: PD: -1.25
- Metabolite data: PE: -3.092
- Metabolite data: PEEK: -1.29
- Metabolite data: Phenol Red: 0
- Metabolite data: Pyroglutamic acid: -0.07146
- Metabolite data: S-Adenosyl-L-Homocysteine: -0.5514
- Metabolite data: S-methyl-5'-thioadenosine: -0.2796
- Metabolite data: SD: -3.659
- Metabolite data: Sedoheptulose Bisphosphate: -0.9288
- Metabolite data: UDP: -0.7526
- Metabolite data: UDP-D-Glucose: -0.1564
- Metabolite data: UDP-D-Glucuronate: -0.198
- Metabolite data: UDP-N-Acetyl-Glucosamine: 0.08301
- Metabolite data: UMP: -0.4316
- Metabolite data: UTP: -1.732
- Metabolite data: a-ketoglutarate: 0.4286
- Metabolite data: acetyl-aspartate: 0
- Metabolite data: arginine: 0
- Metabolite data: asparagine: 0
- Metabolite data: aspartate: 0
- Metabolite data: biotin: 0
- Metabolite data: chlorpropamide: 0
- Metabolite data: coenzyme A: 0
- Metabolite data: dAMP: 2.428
- Metabolite data: dATP: -0.7133
- Metabolite data: dCDP: 1.868
- Metabolite data: dCMP: 1.752
- Metabolite data: dCTP: 0.5805
- Metabolite data: dGDP/ADP: -2.35
- Metabolite data: dGMP/AMP: -1.067
- Metabolite data: dGTP/ATP: 0
- Metabolite data: dTDP: 2.593
- Metabolite data: dTMP: 4.089
- Metabolite data: dTTP: 1.546
- Metabolite data: folate: 0
- Metabolite data: glucono-lactone: 0
- Metabolite data: glutamate: 0
- Metabolite data: glutamine: 0
- Metabolite data: glutathione: 0
- Metabolite data: histidine: 0
- Metabolite data: hydroxyproline/Aminolevulinate: 0
- Metabolite data: isoleucine: 0
- Metabolite data: leucine: 0
- Metabolite data: maleic acid: 0
- Metabolite data: methionine: 0
- Metabolite data: nicotinamide mononucleotide: 0
- Metabolite data: orotidine-5'-phosphate: 0

SMILES: CC1(C)N=C(N)N=C(N)N1OCCCOc1cc(Cl)c(Cl)cc1Cl [WR99210]
- Metabolite data: 1_3-Bisphosphoglyceric acid: 0
- Metabolite data: 2_3-Diphosphoglyceric acid: 0.15
- Metabolite data: 3-Phosphoglycerate: 0
- Metabolite data: 4-Aminobutyrate: 0.89
- Metabolite data: 4-Phosphopantothenate: 0.06
- Metabolite data: 4-phosphopantetheine: 0
- Metabolite data: 5-aminopentanoic acid: 0
- Metabolite data: 5-phosphoribosyl-1-pyrophosphate: 0
- Metabolite data: 6-Phospho-D-Gluconate: 0.03
- Metabolite data: ADP-D-Glucose: -0.24
- Metabolite data: Acetyl-CoA: 0.03
- Metabolite data: Acetyllysine: 0.3
- Metabolite data: Aconitate: -0.02
- Metabolite data: CDP: 0.18
- Metabolite data: CDP-Ethanolamine: 0.69
- Metabolite data: CDP-choline: 0
- Metabolite data: CMP: -0.07
- Metabolite data: CTP: -0.11
- Metabolite data: Citrate/Isocitrate: 0.01
- Metabolite data: Cyclic-AMP: 0
- Metabolite data: Dihydroorotate: 0.21
- Metabolite data: FAD: 0.03
- Metabolite data: FMN: -0.26
- Metabolite data: Fructose-1,6-Bisphosphate: 0
- Metabolite data: Fumarate: 0.11
- Metabolite data: GDP: 0.23
- Metabolite data: GMP: 0.07
- Metabolite data: GTP: -0.36
- Metabolite data: Glucose-1/6-Phosphate: -0.02
- Metabolite data: Glutathione Disulfide: 0.14
- Metabolite data: Hexose: 0
- Metabolite data: Hydroxyisocaproic acid: 0
- Metabolite data: Indole: 0.05
- Metabolite data: Ketoleucine: 0
- Metabolite data: L-arginino-succinate: 0
- Metabolite data: Lactate: 0.42
- Metabolite data: Malate: 0.06
- Metabolite data: Myo-Inositol: 0.64
- Metabolite data: N-Acetyl-Glutamate: 0.09
- Metabolite data: N-Acetyl-L-Alanine: 0.02
- Metabolite data: N-Acetyl-L-Ornithine: 0.2
- Metabolite data: N-Carbamoyl-L-Aspartate: 0.03
- Metabolite data: NAD+: 0.17
- Metabolite data: NADH: 3.14
- Metabolite data: NADP+: 0.03
- Metabolite data: NADPH: 0.5
- Metabolite data: Nicotinate: 0.23
- Metabolite data: Octulose 8/1-Phosphate: 0.08
- Metabolite data: Orotate: 0.09
- Metabolite data: PD: 0
- Metabolite data: PE: 0
- Metabolite data: PEEK: 0
- Metabolite data: Phenol Red: 0
- Metabolite data: Pyroglutamic acid: 0.03
- Metabolite data: S-Adenosyl-L-Homocysteine: 0
- Metabolite data: S-methyl-5'-thioadenosine: 0.14
- Metabolite data: SD: 0
- Metabolite data: Sedoheptulose Bisphosphate: 0.08
- Metabolite data: UDP: 0.22
- Metabolite data: UDP-D-Glucose: 0.05
- Metabolite data: UDP-D-Glucuronate: 0.01
- Metabolite data: UDP-N-Acetyl-Glucosamine: 0.06
- Metabolite data: UMP: 0
- Metabolite data: UTP: -0.42
- Metabolite data: a-ketoglutarate: 0.08
- Metabolite data: acetyl-aspartate: 0
- Metabolite data: arginine: 0
- Metabolite data: asparagine: 0
- Metabolite data: aspartate: 0
- Metabolite data: biotin: 0
- Metabolite data: chlorpropamide: 0
- Metabolite data: coenzyme A: 0
- Metabolite data: dAMP: -0.3
- Metabolite data: dATP: -0.89
- Metabolite data: dCDP: 0.46
- Metabolite data: dCMP: 0.32
- Metabolite data: dCTP: 0.42
- Metabolite data: dGDP/ADP: 0
- Metabolite data: dGMP/AMP: 0
- Metabolite data: dGTP/ATP: 0
- Metabolite data: dTDP: 0.16
- Metabolite data: dTMP: -0.05
- Metabolite data: dTTP: -0.28
- Metabolite data: folate: 0
- Metabolite data: glucono-lactone: 0
- Metabolite data: glutamate: 0
- Metabolite data: glutamine: 0
- Metabolite data: glutathione: 0
- Metabolite data: histidine: 0
- Metabolite data: hydroxyproline/Aminolevulinate: 0
- Metabolite data: isoleucine: 0
- Metabolite data: leucine: 0
- Metabolite data: maleic acid: 0
- Metabolite data: methionine: 0
- Metabolite data: nicotinamide mononucleotide: 0
- Metabolite data: orotidine-5'-phosphate: 0
